Laboratory results as given in the supplement of paper PMC4628005.

Columns and labels:
Settings in all cases: drug exposure time: 96 h
Methotrexate = compound: CN(Cc1cnc2nc(N)nc(N)c2n1)c1ccc(C(=O)N[C@@H](CCC(=O)O)C(=O)O)cc1 [Methotrexate]
Method: (§1)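 Breast cancer cell lines were grown in RPMI 1640 with 10% FBS on collagen I-coated 96-well plates and treated for 96 h (from 24 h after seeding) with 12 dilutions per drug, in triplicate. Growth was read by sulforhodamine B total-protein staining (absorbance 570 nm) relative to diluent control, and IC50 was calculated. The top dose was 1e-5 M for most drugs; Bortezomib went to 2e-5 M and Sirolimus and 17-AAG to 2e-6 M[…].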

Vorinostat = compound: O=C(CCCCCCC(=O)Nc1ccccc1)NO [Vorinostat]
Method: as §1

Dasatinib = compound: Cc1nc(Nc2ncc(C(=O)Nc3c(C)cccc3Cl)s2)cc(N2CCN(CCO)CC2)n1 [Dasatinib]
Method: as §1

Quisinostat = compound: Cn1cc(CNCC2CCN(c3ncc(C(=O)NO)cn3)CC2)c2ccccc21 [Quisinostat]
Method: as §1

Tamoxifen = compound: CC/C(=C(\c1ccccc1)c1ccc(OCCN(C)C)cc1)c1ccccc1 [Tamoxifen]
Method: as §1

Sorafenib = compound: CNC(=O)c1cc(Oc2ccc(NC(=O)Nc3ccc(Cl)c(C(F)(F)F)c3)cc2)ccn1 [Sorafenib]
Method: as §1

Panobinostat = compound: Cc1[nH]c2ccccc2c1CCNCc1ccc(/C=C/C(=O)NO)cc1 [Panobinostat]
Method: as §1

Brivanib = compound: Cc1cc2c(F)c(Oc3ncnn4cc(OC[C@@H](C)O)c(C)c34)ccc2[nH]1 [Brivanib]
Method: as §1

Decitabine = compound: Nc1ncn([C@H]2C[C@H](O)[C@@H](CO)O2)c(=O)n1 [Decitabine]
Method: as §1

Azacitidine = compound: Nc1ncn([C@@H]2O[C@H](CO)[C@@H](O)[C@H]2O)c(=O)n1 [Azacitidine]
Method: as §1

ARQ197 = compound: O=C1NC(=O)[C@@H](c2cn3c4c(cccc24)CCC3)[C@@H]1c1c[nH]c2ccccc12 [ARQ197]
Method: as §1

5-Fluorouracil = compound: O=c1[nH]cc(F)c(=O)[nH]1 [5-Fluorouracil]
Method: as §1

Doxorubicin = compound: COc1cccc2c1C(=O)c1c(O)c3c(c(O)c1C2=O)C[C@@](O)(C(=O)CO)C[C@@H]3O[C@H]1C[C@H](N)[C@H](O)[C@H](C)O1 [Doxorubicin]
Method: as §1

Nutlin-3 = compound: COc1ccc(C2=N[C@@H](c3ccc(Cl)cc3)[C@@H](c3ccc(Cl)cc3)N2C(=O)N2CCNC(=O)C2)c(OC(C)C)c1 [Nutlin-3]
Method: as §1

Lapatinib = compound: CS(=O)(=O)CCNCc1ccc(-c2ccc3ncnc(Nc4ccc(OCc5cccc(F)c5)c(Cl)c4)c3c2)o1 [Lapatinib]
Method: as §1

Serdemetan = compound: c1ccc2c(CCNc3ccc(Nc4ccncc4)cc3)c[nH]c2c1 [Serdemetan]
Method: as §1

Gefitinib = compound: COc1cc2ncnc(Nc3ccc(F)c(Cl)c3)c2cc1OCCCN1CCOCC1 [Gefitinib]
Method: as §1

Paclitaxel = compound: CC(=O)O[C@H]1C(=O)[C@@]2(C)[C@H]([C@H](OC(=O)c3ccccc3)[C@]3(O)C[C@H](OC(=O)[C@H](O)[C@@H](NC(=O)c4ccccc4)c4ccccc4)C(C)=C1C3(C)C)[C@]1(OC(C)=O)CO[C@@H]1C[C@@H]2O [Paclitaxel]
Method: as §1

Sunitinib = compound: CCN(CC)CCNC(=O)c1c(C)[nH]c(/C=C2\C(=O)Nc3ccc(F)cc32)c1C [Sunitinib]
Method: as §1

Cisplatin = compound: N.N.[Cl][Pt][Cl] [Cisplatin]
Method: as §1

Belinostat = compound: O=C(/C=C/c1cccc(S(=O)(=O)Nc2ccccc2)c1)NO [Belinostat]
Method: as §1

Erlotinib = compound: C#Cc1cccc(Nc2ncnc3cc(OCCOC)c(OCCOC)cc23)c1 [Erlotinib]
Method: as §1

Vandetanib = compound: COc1cc2/c(=N/c3ccc(Br)cc3F)nc[nH]c2cc1OCC1CCN(C)CC1 [Vandetanib]
Method: as §1

Tipifarnib = compound: Cn1cncc1[C@@](N)(c1ccc(Cl)cc1)c1ccc2c(c1)c(-c1cccc(Cl)c1)cc(=O)n2C [Tipifarnib]
Method: as §1

Docetaxel = compound: CC(=O)O[C@@]12CO[C@@H]1C[C@H](O)[C@@]1(C)C(=O)[C@H](O)C3=C(C)[C@@H](OC(=O)[C@H](O)[C@@H](NC(=O)OC(C)(C)C)c4ccccc4)C[C@@](O)([C@@H](OC(=O)c4ccccc4)[C@H]21)C3(C)C [Docetaxel]
Method: as §1

Mitoxantrone = compound: O=C1c2c(O)ccc(O)c2C(=O)c2c(NCCNCCO)ccc(NCCNCCO)c21 [Mitoxantrone]
Method: as §1

MI-219 = compound: CC(C)(C)C[C@H]1N[C@@H](C(=O)NCC[C@H](O)CO)[C@H](c2cccc(Cl)c2)[C@@]12C(=O)Nc1cc(Cl)c(F)cc12 [MI-219]
Method: as §1

Sirolimus = compound: CO[C@H]1C[C@@H]2CC[C@@H](C)[C@@](O)(O2)C(=O)C(=O)N2CCCC[C@H]2C(=O)O[C@H]([C@H](C)C[C@@H]2CC[C@@H](O)[C@H](OC)C2)CC(=O)[C@H](C)/C=C(\C)[C@@H](O)[C@@H](OC)C(=O)[C@H](C)C[C@H](C)/C=C/C=C/C=C/1C [Sirolimus]
Method: (§2)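 Same SRB 96 h IC50 screen on breast cancer cell lines (RPMI 1640 + 10% FBS, collagen I-coated 96-well plates, triplicates, 12 dilutions), for drugs with a different dose range: Bortezomib up to 2e-5 M; Sirolimus and 17-AAG up to 2e-6 M. Sirolimus values at the 2e-6 M top dose are censored.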

Bortezomib = compound: CC(C)C[C@H](NC(=O)[C@H](Cc1ccccc1)NC(=O)c1cnccn1)B(O)O [Bortezomib]
Method: as §2

17-AAG = compound: C=CCNC1=C2C[C@@H](C)C[C@H](OC)[C@H](O)[C@@H](C)/C=C(\C)[C@H](OC(N)=O)[C@@H](OC)/C=C\C=C(/C)C(=O)NC(=CC1=O)C2=O [17-AAG]
Method: as §2

| Test System | IC50 (SRB growth assay) (Methotrexate) [nM] | IC50 (SRB growth assay) (Vorinostat) [nM] | IC50 (SRB growth assay) (Dasatinib) [nM] | IC50 (SRB growth assay) (Quisinostat) [nM] | IC50 (SRB growth assay) (Tamoxifen) [nM] | IC50 (SRB growth assay) (Sorafenib) [nM] | IC50 (SRB growth assay) (Panobinostat) [nM] | IC50 (SRB growth assay) (Brivanib) [nM] | IC50 (SRB growth assay) (Decitabine) [nM] | IC50 (SRB growth assay) (Azacitidine) [nM] | IC50 (SRB growth assay) (ARQ197) [nM] | IC50 (SRB growth assay) (5-Fluorouracil) [nM] | IC50 (SRB growth assay) (Doxorubicin) [nM] | IC50 (SRB growth assay) (Nutlin-3) [nM] | IC50 (SRB growth assay) (Lapatinib) [nM] | IC50 (SRB growth assay) (Serdemetan) [nM] | IC50 (SRB growth assay) (Gefitinib) [nM] | IC50 (SRB growth assay) (Paclitaxel) [nM] | IC50 (SRB growth assay) (Sunitinib) [nM] | IC50 (SRB growth assay) (Cisplatin) [nM] | IC50 (SRB growth assay) (Belinostat) [nM] | IC50 (SRB growth assay) (Erlotinib) [nM] | IC50 (SRB growth assay) (Vandetanib) [nM] | IC50 (SRB growth assay) (Tipifarnib) [nM] | IC50 (SRB growth assay) (Docetaxel) [nM] | IC50 (SRB growth assay) (Mitoxantrone) [nM] | IC50 (SRB growth assay) (MI-219) [nM] | IC50 (SRB growth assay) (Sirolimus) [nM] | IC50 (SRB growth assay) (Bortezomib) [nM] | IC50 (SRB growth assay) (17-AAG) [nM] |
| --- | --- | --- | --- | --- | --- | --- | --- | --- | --- | --- | --- | --- | --- | --- | --- | --- | --- | --- | --- | --- | --- | --- | --- | --- | --- | --- | --- | --- | --- | --- |
| BT 20 | > 10000 | 586 | > 10000 | 8.27 | 49.4 | 3780 | 7.93 | > 10000 | > 10000 | 1140 | 511 | 2830 | 10.5 | > 10000 | 5800 | 2270 | > 10000 | 1.79 | > 10000 | > 10000 | 197 | 6140 | 9410 | 31.9 | 0.541 | 10.9 | > 10000 | 0.232 | 13.9 | 535 |
| CAMA 1 | 8300 | 1020 | > 10000 | 2.87 | 7980 | 5240 | 12.6 | > 10000 | 1040 | 5560 | 424 | 1560 | 21.8 | > 10000 | 4200 | 1520 | > 10000 | 1.95 | 5680 | > 10000 | 339 | > 10000 | > 10000 | 3040 | 0.662 | 6.16 | > 10000 | 0.106 | 6.12 | 22.7 |
| EVSA-T | 6030 | 380 | > 10000 | 1.36 | 4960 | 2240 | 3.19 | > 10000 | 2250 | 3840 | 218 | 1740 | 8.01 | > 10000 | 2530 | 1130 | 7520 | 1.09 | 2200 | > 10000 | 85.1 | > 10000 | 2020 | 18.5 | 0.4 | 2.68 | > 10000 | 0.0536 | 2.74 | 5.76 |
